According to patent US11000033B2, “Ketone or oxime compound, and herbicide” (NISSAN CHEMICAL CORPORATION, priority 2014, dated 2021):

What was measured:
Type in all cases: in vivo
Setaria viridis [1] = assay: Test Example 4: herbicidal effect by soil treatment (symbol G); conditions: application herbicide amount 320 g/ha
In short: (§1)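 Seeds were sown in sterilized diluvial soil, covered with about 1.5 cm of soil, and the soil surface was sprayed with a water-diluted emulsion of the compound at a predetermined rate. Plants grew in a greenhouse at 25° C. to 30° C.; effects were scored visually 3 weeks after application.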

Cyperus difformis = assay: Test Example 3: herbicidal effect by foliage application, Wagner pot (symbol E); conditions: application herbicide amount 320 g/ha
In short: (§2)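 Weeds and rice were sown in alluvial soil under 0.1–0.5 cm of standing water and grown for 14 days in a 25–30 °C greenhouse. An emulsion of the compound, diluted in water to a set dose, was sprayed evenly onto the foliage. Effect was scored against fixed criteria 3 weeks after treatment.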

Digitaria ciliaris [2] = assay: Test Example 4: herbicidal effect by soil treatment (symbol F); conditions: application herbicide amount 320 g/ha
In short: as §1

beet = assay: Test Example 4: effect on crop by soil treatment (symbol f); conditions: application herbicide amount 320 g/ha
In short: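 Soil-treatment setup: crop and weed seeds were spot-sown into sterilized diluvial soil, then buried beneath approximately 1.5 cm of it, and the boxes were housed in a 25–30° C. greenhouse.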

Stellaria media = assay: Test Example 5: herbicidal effect by foliage application, plastic box (symbol P); conditions: 320 g/ha, 3 weeks after application
In short: (§3)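 Leaf-applied emulsion, water-diluted to a preset herbicide dose, on two-week-old seedlings raised in a 25° C. to 30° C. greenhouse; injury rated at 3 weeks using earlier criteria.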

Digitaria ciliaris [3] = assay: Test Example 5: herbicidal effect by foliage application, plastic box (symbol F); conditions: 320 g/ha, 3 weeks after application
In short: as §3

Setaria viridis [4] = assay: Test Example 5: herbicidal effect by foliage application, plastic box (symbol G); conditions: 320 g/ha, 3 weeks after application
In short: as §3

Monochoria vaginalis = assay: Test Example 2: herbicidal activity, application during weed generation in submerged conditions (symbol C); conditions: Table 23; application herbicide amount 320 g/ha; grade 0-5 by criteria of Test Example 1
In short: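 Alluvial soil in pots was flooded to a 4 cm water depth and sown with a mix of the three weed species, then grown in a greenhouse at 25° C. to 30° C. At the one- to two-leaf stage, an emulsifiable formulation diluted in water to a set dose was applied to the water surface. Effects were scored visually 3 weeks later.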

Scirpus juncoides = assay: Test Example 1: herbicidal activity, application before weed generation in submerged conditions (symbol B); conditions: application herbicide amount 320 g/ha
In short: (§4)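 Steps: alluvial soil flooded to 4 cm; weed seeds sown together; rice seedlings (2.5 leaf) transplanted; diluted emulsion applied to water surface the same day as sowing; plants grown at 25–30 °C in greenhouse; herbicidal effect rated on a 0–5 scale at 3 weeks.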

Avena fatua = assay: Test Example 5: herbicidal effect by foliage application, plastic box (symbol I); conditions: 320 g/ha, 3 weeks after application
In short: as §3

[5] = system: Echinochloa oryzacola Vasing.; assay: Test Example 1: herbicidal activity, application before weed generation in submerged conditions (symbol A); conditions: application herbicide amount 320 g/ha
In short: as §4

Veronica persica = assay: Test Example 4: herbicidal effect by soil treatment (symbol R); conditions: application herbicide amount 320 g/ha
In short: as §1

Leptochloa chinensis = assay: Test Example 3: herbicidal effect by foliage application, Wagner pot (symbol D); conditions: application herbicide amount 320 g/ha
In short: as §2

[6] = system: Echinochloa crus-galli var. crus-galli; assay: Test Example 4: herbicidal effect by soil treatment (symbol H); conditions: application herbicide amount 320 g/ha
In short: as §1

SMILES	Herbicidal effect grade, G: Setaria viridis (Setaria viridis [1])	herbicidal effect on E, grade 0-5 (Cyperus difformis)	Herbicidal effect grade, F: Digitaria ciliaris (Digitaria ciliaris [2])	Effect on crop grade, f: beet (beet)	P: Stellaria media, herbicidal effect (criteria of Test Example 1) (Stellaria media)	F: Digitaria ciliaris, herbicidal effect (criteria of Test Example 1) (Digitaria ciliaris [3])	G: Setaria viridis, herbicidal effect (criteria of Test Example 1) (Setaria viridis [4])	Herbicidal effect grade, C: Monochoria vaginalis (Monochoria vaginalis)	Herbicidal effect grade, B: Scirpus juncoides (Scirpus juncoides)	I: Avena fatua, herbicidal effect (criteria of Test Example 1) (Avena fatua)	Herbicidal effect grade, A: Echinochloa oryzacola Vasing. [5]	Herbicidal effect grade, R: Veronica persica (Veronica persica)	herbicidal effect on D (Leptochloa chinensis), grade 0-5 (Leptochloa chinensis)	Herbicidal effect grade, H: Echinochloa crus-galli var. crus-galli [6]
CCc1cc(Br)cc(C)c1C1=C(O)CC(CC(C)=O)C1=O (stereo not drawn) [7-003]	5 (Herbicidal ratio of 90% or more (almost completely withered))	0 (Herbicidal ratio of 5% or lower (almost no effect))	5 (Herbicidal ratio of 90% or more (almost completely withered))	0 (Herbicidal ratio of 5% or lower (almost no effect))	0 (Herbicidal ratio of 5% or lower (almost no effect))	5 (Herbicidal ratio of 90% or more (almost completely withered))	5 (Herbicidal ratio of 90% or more (almost completely withered))	0 (Herbicidal ratio of 5% or lower (almost no effect))	0 (Herbicidal ratio of 5% or lower (almost no effect))	5 (Herbicidal ratio of 90% or more (almost completely withered))	5 (Herbicidal ratio of 90% or more (almost completely withered))	0 (Herbicidal ratio of 5% or lower (almost no effect))	5 (Herbicidal ratio of 90% or more (almost completely withered))	5 (Herbicidal ratio of 90% or more (almost completely withered))
CC(=O)CC1CC(O)=C(c2c(C)cc(-c3ccccc3)cc2C)C1=O (stereo not drawn) [7-004]	5 (Herbicidal ratio of 90% or more (almost completely withered))	5 (Herbicidal ratio of 90% or more (almost completely withered))	5 (Herbicidal ratio of 90% or more (almost completely withered))	0 (Herbicidal ratio of 5% or lower (almost no effect))	0 (Herbicidal ratio of 5% or lower (almost no effect))	5 (Herbicidal ratio of 90% or more (almost completely withered))	4 (Herbicidal ratio of 70% or higher and lower than 90%)	0 (Herbicidal ratio of 5% or lower (almost no effect))	3 (Herbicidal ratio of 40% or higher and lower than 70%)	2 (Herbicidal ratio of 20% or higher and lower than 40%)	5 (Herbicidal ratio of 90% or more (almost completely withered))	0 (Herbicidal ratio of 5% or lower (almost no effect))	5 (Herbicidal ratio of 90% or more (almost completely withered))	5 (Herbicidal ratio of 90% or more (almost completely withered))
CC(=O)CC1CC(O)=C(c2c(C)cc(-c3ccc(C(F)(F)F)cc3)cc2C)C1=O (stereo not drawn) [7-005]	0 (Herbicidal ratio of 5% or lower (almost no effect))	0 (Herbicidal ratio of 5% or lower (almost no effect))	5 (Herbicidal ratio of 90% or more (almost completely withered))	0 (Herbicidal ratio of 5% or lower (almost no effect))	1 (Herbicidal ratio of 5% or higher and lower than 20%)	5 (Herbicidal ratio of 90% or more (almost completely withered))	4 (Herbicidal ratio of 70% or higher and lower than 90%)	0 (Herbicidal ratio of 5% or lower (almost no effect))	0 (Herbicidal ratio of 5% or lower (almost no effect))	2 (Herbicidal ratio of 20% or higher and lower than 40%)	3 (Herbicidal ratio of 40% or higher and lower than 70%)	0 (Herbicidal ratio of 5% or lower (almost no effect))	5 (Herbicidal ratio of 90% or more (almost completely withered))	0 (Herbicidal ratio of 5% or lower (almost no effect))
COc1ccc(-c2cc(C)c(C3=C(O)CC(CC(C)=O)C3=O)c(C)c2)cc1 (stereo not drawn) [7-006]	0 (Herbicidal ratio of 5% or lower (almost no effect))	0 (Herbicidal ratio of 5% or lower (almost no effect))	0 (Herbicidal ratio of 5% or lower (almost no effect))	0 (Herbicidal ratio of 5% or lower (almost no effect))	0 (Herbicidal ratio of 5% or lower (almost no effect))	5 (Herbicidal ratio of 90% or more (almost completely withered))	5 (Herbicidal ratio of 90% or more (almost completely withered))	0 (Herbicidal ratio of 5% or lower (almost no effect))	0 (Herbicidal ratio of 5% or lower (almost no effect))	3 (Herbicidal ratio of 40% or higher and lower than 70%)	3 (Herbicidal ratio of 40% or higher and lower than 70%)	0 (Herbicidal ratio of 5% or lower (almost no effect))	5 (Herbicidal ratio of 90% or more (almost completely withered))	0 (Herbicidal ratio of 5% or lower (almost no effect))
CC(=O)CC1CC(O)=C(c2c(C)cc(-c3ccc(C)cc3)cc2C)C1=O (stereo not drawn) [7-007]	4 (Herbicidal ratio of 70% or higher and lower than 90%)	4 (Herbicidal ratio of 70% or higher and lower than 90%)	4 (Herbicidal ratio of 70% or higher and lower than 90%)	0 (Herbicidal ratio of 5% or lower (almost no effect))	0 (Herbicidal ratio of 5% or lower (almost no effect))	5 (Herbicidal ratio of 90% or more (almost completely withered))	5 (Herbicidal ratio of 90% or more (almost completely withered))	3 (Herbicidal ratio of 40% or higher and lower than 70%)	1 (Herbicidal ratio of 5% or higher and lower than 20%)	4 (Herbicidal ratio of 70% or higher and lower than 90%)	5 (Herbicidal ratio of 90% or more (almost completely withered))	0 (Herbicidal ratio of 5% or lower (almost no effect))	5 (Herbicidal ratio of 90% or more (almost completely withered))	5 (Herbicidal ratio of 90% or more (almost completely withered))
CC(=O)CC1CC(O)=C(c2c(C)cc(-c3ccc(Cl)cc3)cc2C)C1=O (stereo not drawn) [7-008]	5 (Herbicidal ratio of 90% or more (almost completely withered))	5 (Herbicidal ratio of 90% or more (almost completely withered))	5 (Herbicidal ratio of 90% or more (almost completely withered))	0 (Herbicidal ratio of 5% or lower (almost no effect))	1 (Herbicidal ratio of 5% or higher and lower than 20%)	5 (Herbicidal ratio of 90% or more (almost completely withered))	5 (Herbicidal ratio of 90% or more (almost completely withered))	0 (Herbicidal ratio of 5% or lower (almost no effect))	2 (Herbicidal ratio of 20% or higher and lower than 40%)	5 (Herbicidal ratio of 90% or more (almost completely withered))	4 (Herbicidal ratio of 70% or higher and lower than 90%)	0 (Herbicidal ratio of 5% or lower (almost no effect))	5 (Herbicidal ratio of 90% or more (almost completely withered))	5 (Herbicidal ratio of 90% or more (almost completely withered))
